In article PMC8879660, “Characterizing the Physicochemical Properties of Two Weakly Basic Drugs and the Precipitates Obtained from Biorelevant Media” (Pharmaceutics, 2022):
≈ marks a conversion by molar mass, not a printed value. Like-named read-outs stand apart in the source and are kept apart here.

How the values were obtained:
[1] = Equilibrium solubility of API in different media; format: physicochemical; conditions: 37 °C, 200 rpm
Description: To select an appropriate method for the preparation of precipitates, the equilibrium solubility of model drugs was firstly investigated in various media, including pH 1.0 HCl solution, pH 5.0, pH 6.5, and pH 8.0 phosphate buffer solution (PBS), fasted state simulated intestinal fluid (FaSSIF, Fa), and fed-state simulated intestinal fluid (FeSSIF, Fe). The excess sample was added to the medium, and the test of equilibrium solubility was performed with the stirring rate of 200 revolutions per minute (rpm) under 37 °C for 24 h. Sample concentration was detected every minute by Pion’s in situ fiber-optic UV dissolution monitoring system (Pion Scientific Instruments, Billerica, MA, USA), a real-time online detector. All measurements were performed in triplicate.

[2] = stated in Materials, source not given; cited from earlier work
[3] = Equilibrium solubility / dissolution of precipitates and API in pH 6.5 FaSSIF buffer; format: physicochemical; conditions: FaSSIF buffer pH 6.5, 37 °C
Description: To estimate the solution properties of different crystal structures in near neutral or slightly acidic environments, the equilibrium solubility of various precipitates and API in the pH 6.5 FaSSIF buffer medium (FaB) was investigated. An excess sample was added to the medium, and the test of equilibrium solubility was performed with the stirring rate of 200 revolutions per minute (rpm) under 37 °C for 24 h. Sample concentration was detected every minute by Pion’s in situ fiber-optic UV dissolution monitoring system. All measurements were performed three times.

[4] = Stirring PAMPA permeability assay of precipitates and API in different donor media; format: in vitro ADME
Description: In order to simulate the permeation of compounds in different crystal structures in the GI tract, the stirring PAMPA method (Pion Inc., Billerica, MA, USA) was used to assess the passive transcellular permeability. The donor and acceptor chambers representing the GI tract and systemic circulation were separated by the artificial membrane (PVDF, polyvinylidenfluoride, 0.45 μm, 0.78 cm^2). The membrane surface was coated with 20 μL of lipid, which was used to simulate the microenvironment of lipids in vivo. Then, 16 mL PBS/FaSSIF/FeSSIF medium with pH 5.0 was added into the donor chamber, and 16 mL sink buffer was added into the acceptor chamber. In order to simulate the redissolution progress of precipitate in the GI tract, a slight excess of crystalline powder was added into the donor chamber. Both chambers were stirred at 200 rpm at 37 °C, and the concentration of each chamber was detected by immersed UV-probes at 320 nm and 340 nm for rivaroxaban and Drug-A, respectively. The flux was defined as the amount of compound passing through the unit area perpendicular to its flow direction in unit time and was calculated by the following equation [31]:(2) J(t)=Ct2−Ct1/A(t2−t1)×V where J(t) is the flux of a compound; Ct is the concentration of compound at t; V is the solution volume of the donor chamber; A is the area of the artificial membrane. […]

[5] = Intrinsic dissolution rate (disc method, Mini-IDR); format: physicochemical; conditions: same dissolution medium, 37 °C, 200 rpm
Description: The intrinsic dissolution rate (IDR) of compounds with different crystal structures was measured by the disc method based on the literature. About 10 mg of powder was loaded into the Mini-IDR compression system (Pion Inc., Billerica, MA, USA) and compressed at 100 psi (rivaroxaban) and 200 psi (Drug-A) for 1 min to obtain the miniaturized discs with a surface area of 0.071 cm^2. The discs were inserted into stirrer-die assembly and placed into flat-bottomed glass vials for dissolution analysis. At the start of the experiments, the magnetic stirrer was immediately switched on with the speed of 200 rpm, and then 10 mL of preheated (37 °C) dissolution media (FaSSIF buffer medium, FeSSIF buffer medium, FaSSIF medium and FeSSIF medium) were added into the vials at a constant temperature. The concentration was determined directly in the dissolution media every 30 s using an in situ UV probe for 2 h. All experiments were performed in triplicate, and the IDR was calculated with the following equation [30]:(1) IDR=V×dc/dt×1/A where V is the volume of medium in the glass vial; dc/dt is the slope of the straight line from the dissolution profile; A is the surface area of the disc.

solubility at 24 h ([1]; FaSSIF, n = 3, read-out: Solubility of API, FaSSIF): 6.17 µg/mL (≈ 14.2 µM)
solubility at 24 h ([1]; FeSSIF, n = 3, read-out: Solubility of API, FeSSIF): 10.6 µg/mL (≈ 24.3 µM)
solubility at 24 h ([1]; pH 1.0 HCl solution, n = 3, read-out: Solubility of API, pH 1.0 HCl): 6.84 µg/mL (≈ 15.7 µM)
solubility at 24 h ([1]; pH 5.0 phosphate buffer solution (PBS), aqueous buffer, thermodynamic from solid, pH 5.0 PBS, n = 3, read-out: Solubility of API, pH 5.0 PBS): 4.85 µg/mL (≈ 11.1 µM)
solubility at 24 h ([1]; pH 6.5 phosphate buffer solution (PBS), pH 6.5 PBS, n = 3, read-out: Solubility of API, pH 6.5 PBS): 5.85 µg/mL (≈ 13.4 µM)
solubility at 24 h ([1]; pH 8.0 phosphate buffer solution (PBS), pH 8.0 PBS, n = 3, read-out: Solubility of API, pH 8.0 PBS): 5.87 µg/mL (≈ 13.5 µM)
Dissolved rate of precipitates compared with API [3]: higher than that of API
Difference in equilibrium solubility between API and precipitates obtained from biorelevant media ([3]; 24 h, precipitates from FaSSIF, 0.5 × FeSSIF, FeSSIF, 2 × FeSSIF): no statistical difference
Permeability in donor chamber containing aqueous medium relative to donor chamber containing biorelevant medium ([4]; donor pH 5.0 PBS vs biorelevant medium, 37 °C, 200 rpm): about 1.92 fold
Influence of crystal structure (API vs precipitates) on intrinsic dissolution rate [5]: significant influence
Structure (SMILES): O=C(NC[C@H]1CN(c2ccc(N3CCOCC3=O)cc2)C(=O)O1)c1ccc(Cl)s1 [Rivaroxaban]
log p [2]: 1.90
pKa [2]: 13.6
Permeability of API compared with precipitates ([4]; FeSSIF in the donor chamber): larger than that of precipitates obtained from biorelevant media
